Some test systems named below: 786-0 renal; SK-MEL-28 melanoma; SN12C renal; SR leukemia; OVCAR-4 ovarian; CAKI-1 renal; MOLT-4 leukemia; SK-MEL-2 melanoma; T-47D breast; EKVX NSCLC.
Common to all, as to experiment: NCI tumour cell line growth inhibition, 48 h

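Each compound was tested at five concentrations against cells in 96-well plates for 48 hours. GI50 = concentration required for 50% inhibition of growth. The concentration for full growth arrest is given as TGI.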

As for `CC(=O)OC1=CC2=CC[C@H]3[C@@H]4CCC(=O)[C@@]4(C)CC(=O)[C@]3(S)[C@@]2(C)CC1`, the TGI in the experiment with 786-0 renal is 87 µM; in the experiment on SK-MEL-28 melanoma, above 100 µM; in the experiment on SN12C renal it was above 100 µM; with SR leukemia, 74.1 µM; in the experiment with OVCAR-4 ovarian, above 100 µM; in the experiment on CAKI-1 renal, above 100 µM. For the same molecule, the TGI in the experiment with MOLT-4 leukemia was 37.4 µM; in the experiment with SK-MEL-2 melanoma it was above 100 µM; in the experiment with T-47D breast, above 100 µM; with EKVX NSCLC, above 100 µM.

Turning to `CC(C)(C)c1ccc(OC(=O)Nc2ccc(O)c(C(=O)O)c2)cc1`, the TGI in the experiment with 786-0 renal, in the experiment on SK-MEL-28 melanoma, in the experiment with SN12C renal, in the experiment on SR leukemia, in the experiment on OVCAR-4 ovarian and with CAKI-1 renal was above 100 µM throughout. Besides, the TGI in the experiment on MOLT-4 leukemia, in the experiment on SK-MEL-2 melanoma, with T-47D breast and in the experiment with EKVX NSCLC was above 100 µM each time.

With `COc1ccc(S(=O)(=O)NC2=NCCN2C(=S)SN2CCn3c2nsc3=S)cc1`, the GI50 was 20.2 µM in the experiment with 786-0 renal; 21.1 µM with SK-MEL-28 melanoma; 18.2 µM in the experiment on SN12C renal; 17 µM in the experiment on SR leukemia; 18 µM in the experiment with OVCAR-4 ovarian; 17.9 µM in the experiment on CAKI-1 renal. Also, the GI50 with MOLT-4 leukemia was 29.4 µM; in the experiment with SK-MEL-2 melanoma it was 17.6 µM; in the experiment with T-47D breast, 18.3 µM; in the experiment with EKVX NSCLC it was 15.8 µM. Further, the TGI is 35.4 µM with 786-0 renal; 65.1 µM in the experiment on SK-MEL-28 melanoma; 40 µM with SN12C renal; above 100 µM in the experiment with SR leukemia; 44.7 µM in the experiment on OVCAR-4 ovarian; 62.8 µM in the experiment on CAKI-1 renal. The TGI with MOLT-4 leukemia is above 100 µM; with SK-MEL-2 melanoma it was 51.3 µM; in the experiment on T-47D breast it was 49.1 µM; in the experiment on EKVX NSCLC, 30.6 µM.

With `O=[N+]([O-])c1ccc(C2CC(c3ccccc3Cl)=Nc3ccccc3S2=O)cc1` (stereo not given), the TGI in the experiment with 786-0 renal stood at 3.31 µM; with SK-MEL-28 melanoma, 13.8 µM; with SN12C renal, 5.2 µM; in the experiment with SR leukemia it was 6.64 µM; with OVCAR-4 ovarian, 6.12 µM; with CAKI-1 renal it was 4.33 µM. Further, the TGI in the experiment with MOLT-4 leukemia amounted to 7.47 µM; in the experiment on SK-MEL-2 melanoma it was 51.7 µM; in the experiment on T-47D breast, 44.2 µM; with EKVX NSCLC, 35.4 µM.

Regarding `N[C@@H]1C(=O)N2C(C(=O)OC(c3ccccc3)c3ccccc3)=C(CCl)CS[C@H]12`, the GI50 is 39.3 µM in the experiment with 786-0 renal; 22.4 µM with SK-MEL-28 melanoma; 41 µM with SN12C renal; 2.12 µM in the experiment with SR leukemia; 44.8 µM in the experiment with OVCAR-4 ovarian; above 100 µM in the experiment on CAKI-1 renal. Besides, the GI50 in the experiment with MOLT-4 leukemia is 11.3 µM; in the experiment with SK-MEL-2 melanoma, 54.2 µM; in the experiment with T-47D breast, 46 µM; in the experiment with EKVX NSCLC, 60.1 µM. In addition, the TGI in the experiment with 786-0 renal was 98.9 µM; in the experiment with SK-MEL-28 melanoma, 53.8 µM; in the experiment with SN12C renal, above 100 µM; with SR leukemia, 33.8 µM; in the experiment on OVCAR-4 ovarian, above 100 µM; in the experiment with CAKI-1 renal, above 100 µM. Further, the TGI in the experiment on MOLT-4 leukemia is above 71.2 µM; in the experiment on SK-MEL-2 melanoma, above 100 µM; in the experiment with T-47D breast, above 100 µM; in the experiment on EKVX NSCLC, above 100 µM.

Turning to `O=C(O)C1CC2(C1)CC(C(=O)O)C2` (stereo not given), the TGI in the experiment on 786-0 renal, in the experiment with SK-MEL-28 melanoma, in the experiment with SN12C renal, in the experiment on SR leukemia, in the experiment with OVCAR-4 ovarian and with CAKI-1 renal was above 100 µM each time. Also, the TGI with MOLT-4 leukemia, with SK-MEL-2 melanoma, in the experiment with T-47D breast and in the experiment with EKVX NSCLC was above 100 µM each time.

Regarding `Nc1nc(N)c(C=Nc2ccc(Br)cc2)c(Nc2ccc(Br)cc2)n1`, the GI50 is 11.1 µM with 786-0 renal; 12.3 µM in the experiment on SK-MEL-28 melanoma; 8.19 µM in the experiment on SN12C renal; 2.61 µM with SR leukemia; 10.6 µM with OVCAR-4 ovarian; 3.45 µM with CAKI-1 renal. For the same molecule, the GI50 with MOLT-4 leukemia was 10.7 µM; with SK-MEL-2 melanoma, 10.2 µM; in the experiment with T-47D breast, 4.22 µM; in the experiment on EKVX NSCLC, 10.5 µM. For the same molecule, the TGI in the experiment on 786-0 renal was 23 µM; with SK-MEL-28 melanoma, 24.7 µM; in the experiment with SN12C renal, 33.6 µM; in the experiment with SR leukemia, 10.2 µM; in the experiment with OVCAR-4 ovarian, 25 µM; in the experiment with CAKI-1 renal, 18.7 µM. For the same molecule, the TGI was 28.5 µM in the experiment on MOLT-4 leukemia, 23 µM in the experiment on SK-MEL-2 melanoma, 18.4 µM in the experiment on T-47D breast and 24.1 µM with EKVX NSCLC.

Take `N#Cc1c(Br)n(C2OC(CO)C(O)C2O)c2ncnc(N)c12` (stereo not given): the GI50 is 6.45 µM in the experiment on 786-0 renal; 2.14 µM in the experiment with SK-MEL-28 melanoma; 2.69 µM in the experiment with SN12C renal; 0.827 µM in the experiment with SR leukemia; 2.11 µM in the experiment with OVCAR-4 ovarian; 0.677 µM in the experiment with CAKI-1 renal. Also, the GI50 in the experiment with MOLT-4 leukemia was 0.723 µM; in the experiment on SK-MEL-2 melanoma, 5.3 µM; with T-47D breast, 0.498 µM; in the experiment on EKVX NSCLC, 4.62 µM. The TGI is above 100 µM in the experiment with 786-0 renal; 12.7 µM with SK-MEL-28 melanoma; above 100 µM in the experiment with SN12C renal; 4.98 µM in the experiment on SR leukemia; 71.8 µM in the experiment on OVCAR-4 ovarian; 2.91 µM in the experiment on CAKI-1 renal. Moreover, the TGI in the experiment with MOLT-4 leukemia turned out to be 7.02 µM; with SK-MEL-2 melanoma it was 14.1 µM; in the experiment with T-47D breast, 21 µM; in the experiment with EKVX NSCLC it was 74.7 µM.

Values taken from PubChem BioAssay (NCI).
